Experimental data: patent US20070213382A1, “2-METHYLTHIAZOLIDINE-2, 4-DICARBOXYLIC ACID-CONTAINING COMBINATION PREPARATIONS” (priority 2004, published 2007)
In brackets after ≈: the same amount, converted by molar mass. Where two headings read alike, the source gives them in different places.

Key:
[1] = test system: Bladder carcinoma cells EJ; assay: in vitro cytotoxicity assay, crystal violet, 72 h (Example 1); assay type: cell-based, human; conditions: for IC50: Homo sapiens
Protocol: (§1) Examinations for the in vitro cytoxicity of 2-methylthiazolidine-2,4-dicarboxylic acid and N-acetylcysteine in human tumor cell lines were carried out.
(§2) The cells were kept in culturing medium RPMI 1640 (Sigma, Munich) and in addition 10% FCS (Sigma, Munich) in 50 ml cell culture vials (Greiner) at 37° C. as well as under a 5% of CO2 atmosphere.
(§3) Monolayers of the tumor cells were prepared by dispersion of 2×10^6 tumor cells in 96-hole-plates (Greiner). After an incubation time of 24 hours the medium was replaced by a medium containing the test compounds. All assays were carried out four times.
(§4) After 72 h the quantity of living cells was determined by means of coloring with crystal violet.
(§5) For that purpose, the medium was removed from each hole in the plate, the plates were washed twice with PBS, the cells were fixed by means of PBS, containing 1% of paraformaldehyde and dried for 15 minutes at room temperature. Subsequently, the cells were rinsed with PBS and dried at room temperature.
(§6) Thereafter, the cells were colored with 1% crystal violet solution in water for two minutes, and after washing with water the optical density was determined by means of an ELISA spectrometer at 595 nm. The average values and standard deviations for the average values were determined for all four parallel tests.

Neuroglioma cells H4 = assay: as above; assay type: cell-based; conditions: human gliomas cells H4, 72 h; for cytotoxic effect: N-acetylcysteine up to comparatively high concentrations
Protocol: as §1, §2, §3, §4, §5, §6

In the case of CC1(C(=O)O)NC(C(=O)O)CS1 (stereo not shown) [2-methylthiazolidine-2,4-dicarboxylic acid], the “growth of the bladder carcinoma cell line EJ” value ([1]; substance alone) is reported as “not influenced”, the IC50 (Neuroglioma cells H4) is reported as 9.66 µg/mL (≈ 50.5 µM) and the cytotoxic effect (Neuroglioma cells H4) is reported as “significant cytotoxic effect”.

In the case of CC(=O)N[C@@H](CS)C(=O)O [N-acetylcysteine], the cytotoxic effect (Neuroglioma cells H4) is reported as “no effect”.

For Cn1nnc2c(C(N)=O)ncn2c1=O [temozolomide, Temozolomide], the IC50 ([1]; alone, read-out: IC50 value for temozolomide alone) was 1050 µg/mL (≈ 5430 µM), the IC50 ([1]; in the presence of 200 μg/ml 2-methylthiazolidine-2,4-dicarboxylic acid, read-out: IC50 value of temozolomide in the presence of 2-methylthiazolidine-2,4-dicarboxylic acid) was 96.6 µg/mL and the IC50 ([1]; in the presence of 1000 μg/ml N-acetylcysteine, read-out: IC50 value of temozolomide in the presence of N-acetylcysteine) was 903 µg/mL.
